Test results: US9718835B2 (China Medical University Hospital, priority 2013, dated 2017)
Read-outs that look alike come from different tables or passages of the source.

What was measured:
[1] = target: T1, recombinant human Topoisomerase I (Homo sapiens, UniProt P11387); test: Topoisomerase I activity assay in a cell-free system; type: biochemical; settings: purified recombinant human Topo I
T1 construct: purchased TopoGEN
T1 sequence (P11387 1-765): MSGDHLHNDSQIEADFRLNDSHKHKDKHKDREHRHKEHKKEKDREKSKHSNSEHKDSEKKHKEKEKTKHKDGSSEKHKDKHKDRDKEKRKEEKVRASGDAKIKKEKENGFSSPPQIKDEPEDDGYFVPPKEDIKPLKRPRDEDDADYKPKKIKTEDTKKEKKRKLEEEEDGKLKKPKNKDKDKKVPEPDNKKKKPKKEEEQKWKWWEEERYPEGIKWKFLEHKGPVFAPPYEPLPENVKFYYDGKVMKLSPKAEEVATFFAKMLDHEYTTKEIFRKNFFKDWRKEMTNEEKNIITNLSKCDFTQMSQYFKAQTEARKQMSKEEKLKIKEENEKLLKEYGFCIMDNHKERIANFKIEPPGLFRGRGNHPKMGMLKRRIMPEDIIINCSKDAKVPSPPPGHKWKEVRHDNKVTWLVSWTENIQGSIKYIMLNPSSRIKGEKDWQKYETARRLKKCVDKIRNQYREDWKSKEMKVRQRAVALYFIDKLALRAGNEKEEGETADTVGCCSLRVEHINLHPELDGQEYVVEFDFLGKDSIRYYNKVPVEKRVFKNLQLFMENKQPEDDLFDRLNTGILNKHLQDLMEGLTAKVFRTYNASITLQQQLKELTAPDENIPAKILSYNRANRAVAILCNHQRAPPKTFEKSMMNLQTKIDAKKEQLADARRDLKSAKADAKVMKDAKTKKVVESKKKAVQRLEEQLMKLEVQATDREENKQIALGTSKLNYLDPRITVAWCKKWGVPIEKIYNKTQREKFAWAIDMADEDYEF
Experimental: Inhibition of Topo I activity by 9a in a cell-free system. A 1-delivative with an esterified 20-hydroxy group is expected to be activated by digestion with carboxylesterases. […] We authenticated the inhibitory effect of 9a against Topo I in a dose-dependent manner Thus, we confirmed that 9a is a new class of Topo I inhibitor.
One unit of recombinant human Topoisomerase I enzyme (TopoGEN) was pre-incubated for 20 min at 37° C. with vehicle, 9a, 1, 3, or SN-38 in a final volume of 20 μL reaction buffer (10 mM Tris-HCl, pH 7.9, 1 mM EDTA, 150 mM NaCl, 0.1% BSA, 0.1 mM spermidine, 5% glycerol) was then incubated with 250 ng of supercoiled plasmid DNA for 20 min. The supercoiled, relaxed, or nicked DNA was separated by 1% agarose gel in 1×TAE (Tris-Acetate-EDTA) buffer. Ethidium bromide stained agarose gel was photographed using Gel Doc XR (Bio-Rad).

Topo I = target: T2, Topo I (Homo sapiens, UniProt P11387); test: Topo I activity assay, nuclear extracts of treated A-549 cells, supercoiled DNA; type: cell-based; design: Nuclear extracts from 9a-treated A-549 cells were incubated with supercoiled DNA (for Topo I); endogenous in cells; host or cells: A-549
T2 sequence (P11387 1-765): T1 sequence (P11387 1-765)
Experimental: (§1) First, we determined the effect of 9a on cell cycle distribution using flow cytometry analysis. […] Because it has been shown that 1-Topo I-DNA covalent complexes enhance the transcription-dependent degradation of Topo I via a 26S proteasome pathway,^32 the effects of 9a on the expression levels of Topo I and Topo II were investigated.
(§2) Topo I activity test was performed using an assay kit (TopoGEN) according to the manufacturer's instructions. Nuclear extracts from 9a-treated A-549 cells were incubated with supercoiled DNA (for Topo I) or catenated kDNA (for Topo II) for 30 min at 37° C. Reaction mixture was separated by is 1% agarose gel in 1×TAE buffer. The gel was stained with ethidium bromide and photographed using Gel Doc XR (Bio-Rad).

[2] = system: DU-145 (hormone-insensitive prostate cancer); test: Sulforhodamine B cytotoxicity assay, DU-145; type: cell-based, human; settings: Homo sapiens, DU-145; Table 1; 72 h; average ± SD
Experimental: (§3) The 12 novel 1-derivatives 9a-l were evaluated for in vitro antiproliferative activity against four human tumor cell lines, KB (nasopharyngeal), A-549 (lung), DU-145 (prostate), and KBvin (MDR KB subline), by using a sulforhodamine B colorimetric assay with triplicate experiments.^30 Compounds 1 and 3 were used as controls.
(§4) The human tumor cell lines used in this manuscript were A-549 (lung carcinoma), MDA-MB-231 (triple-negative breast cancer), DU-145 (hormone-insensitive prostate cancer), KB (originally isolated from epidermoid carcinoma of the nasopharynx), KBvin (vincristine-resistant KB subline), and HCT116 (colorectal adenocarcinoma). These cell lines were obtained from the Lineberger Comprehensive Cancer Center (UNC-CH) or from ATCC (Manassas, Va.), except KBvin, which was a generous gift of Professor Y.-C. Cheng (Yale University). All cell lines were maintained and assayed in RPMI-1640 medium containing 2 mM L-glutamine and 25 mM HEPES (HyClone), supplemented with 10% heat-inactivated fetal bovine serum (HyClone), 100 μg/mL streptomycin, 100 IU/mL penicillin, and 0.25 μg/mL amphotericin B (Cellgro) in a humidified atmosphere containing 5% CO2 in air. Compound stock solutions were prepared at 10 mM in DMSO and diluted with culture medium with the final DMSO concentration ≦0.01% (v/v), a concentration without effect on cell growth. The 4-6×10^3 cells/well were cultured for 72 h with various concentrations of test compounds in 96-well plate at 37° C. […] Each assay was performed in triplicate with duplicated samples.

[3] = i.p.; cited from earlier work
Topo II = Topo II activity assay, nuclear extracts of treated A-549 cells, catenated kDNA; type: cell-based, human
Text: as §1, with “investigated. […] Compound 9a acts directly on Topo I and results in the accumulation of covalent Topo I-DNA complexes followed by proteasomal Topo I degradation, which is the same effect as 1 and contributes to 9a's cytotoxicity.” for “investigated.”
as §2

[4] = system: KBvin (vincristine-resistant KB subline); test: Sulforhodamine B cytotoxicity assay, KBvin; type: cell-based, human; settings: Homo sapiens, KBVIN
Text: as §4, with “Compound stock solutions were prepared at 10 mM in DMSO and diluted with culture medium with the final DMSO concentration ≦0.01% (v/v), a concentration without effect on cell growth.” left out

[5] = system: MDA-MB-231 (triple-negative breast cancer); test: Sulforhodamine B cytotoxicity assay, MDA-MB-231; type: cell-based; settings: Homo sapiens, Table 4, read-out: IC50 (Average ± SD) MDA-MB-231
Text: as §4, with “Compound stock solutions were prepared at 10 mM in DMSO and diluted with culture medium with the final DMSO concentration ≦0.01% (v/v), a concentration without effect on cell growth.” left out

[6] = system: KB (epidermoid carcinoma of the nasopharynx); test: Sulforhodamine B cytotoxicity assay, KB; type: cell-based, human; settings: Homo sapiens
Experimental: as §3, §4

A-549 (lung carcinoma) = test: Sulforhodamine B cytotoxicity assay, A-549; type: cell-based, human; settings: Homo sapiens, A549; Table 1; 72 h; average ± SD
Text: as §4, with “Compound stock solutions were prepared at 10 mM in DMSO and diluted with culture medium with the final DMSO concentration ≦0.01% (v/v), a concentration without effect on cell growth.” left out

[7] = system: human colorectal adenocarcinoma HCT116 xenograft; test: Xenograft model antitumor assay; type: in vivo, nu/nu mice
Experimental: Xenograft model antitumor assay using human colorectal adenocarcinoma cell line HCT116 was performed according to the regimen in Table 2. The 31-day study utilized four groups of mice (n=8) bearing established HCT116 xenograft with mean volumes of approximately 200 mm^3 on day one. The tumor growth and animal body weight change for each treatment group were measured three times per week (FIGS. 2 and 3). Compound 9a was administered intravenously (i.v.) for 7 days and then intraperitoneally (i.p.) at 5 and 10 mg/kg once every day (QD) to the end.
Five- to six-week-old female nu/nu mice (National Laboratory Animal Center, Taiwan) were inoculated subcutaneously with 2×10^6 human colorectal adenocarcinoma HCT116 cells in flank. When the grafted tumor volume reached the average volume of 200 mm^3, mice were randomly divided into four groups (n=8). Vehicle control and compound 9a at 5 or 10 mg/kg were administered i.v. once a day (QD) for 7 days and then i.p. once a day to the end. As an experimental control group, 100 mg/kg of compound 3 was administered i.v. once a week (QWK) to the end. The length (L) and width (W) of graft was measured every 3 to 4 days to the end, and the tumor volume was calculated as LW^2/2. Results were evaluated statistically by Student's t-test. This study was approved by the Institutional Animal Care and Use Committee (IACUC) of the National Taiwan University (Taipei, Taiwan), and was performed according to the institutional guidelines.

SMILES: CC[C@@]1(O)C(=O)OCc2c1cc1n(c2=O)Cc2cc3ccccc3nc2-1 [Compound 1, Camptothecin, reference compound]
- Inhibition of Topo I activity (relaxation/nicking of supercoiled plasmid DNA) [1]: inhibited Topo I activity
- Topo I-mediated relaxation of supercoiled DNA (Topo I): inhibited the relaxation of supercoiled DNA
- IC50 [2]: 29 ± 2.5 nM
- LD50 [3]: 56.2 mg/kg
- Topo II decatenation of kDNA (Topo II): failed to decatenate kineoplast DNA

SMILES: CC[C@@]1(O)C(=O)OCc2c1cc1n(c2=O)Cc2cc3c(CN(C)C)c(O)ccc3nc2-1 [Compound 2, topotecan, reference compound]
- IC50 ([4]; Table 4, read-out: IC50 (Average ± SD) KBvin): 400 ± 21 nM
- IC50 [5]: 100 ± 5.5 nM
- IC50 ([6]; Table 4, read-out: IC50 (Average ± SD) KB): 63 ± 4.2 nM

SMILES: CCc1c2c(nc3ccc(OC(=O)N4CCC(N5CCCCC5)CC4)cc13)-c1cc3c(c(=O)n1C2)COC(=O)[C@]3(O)CC [Compound 3, irinotecan, reference compound]
- Inhibition of Topo I activity (relaxation/nicking of supercoiled plasmid DNA) [1]: no inhibitory effect on Topo I activity
- IC50 ([4]; Table 1, 72 h, average ± SD, read-out: IC50 KBvin): > 20000 nM
- IC50 (A-549 (lung carcinoma)): 9500 ± 110 nM
- IC50 ([6]; Table 1, 72 h, average ± SD, read-out: IC50 KB): 9800 ± 480 nM
- IC50 [2]: 9300 ± 610 nM
- mice showing complete regression ([7]; 100 mg/kg QWK i.v., n=8): three mice
- antitumor activity in vivo (tumor growth) ([7]; 100 mg/kg QWK, P<0.001): exhibited antitumor activity
- LD50 [3]: 177.5 mg/kg
